Experimental findings from patent US20110046127A1, “Imidazopyridazines for Use as Protein Kinase Inhibitors” (priority 2007, published 2011) are described below.

One may read the IC50 as the concentration that gives 50% inhibition. High values mean weaker potency, low ones greater potency.

The assay concerns T1, PIM-1 or PIM-2.
T1 construct: fused on or other part: C-terminal histidine tag (PIM-1 enzyme); N-terminal histidine tag (PIM-2 enzyme)
Nature of the assay: PIM-1 / PIM-2 biochemical assay (ADP Hunter assay kit). Also noted: species or system human. The note with it: tested in either the PIM-1 or the PIM-2 biochemical assay (as appropriate); ATP 100 μM.
Source text: The biochemical assay to measure PIM-1 activity relies on the ADP Hunter assay kit (DiscoveRx Corp., Cat. # 90-0077), that determines the amount of ADP as direct product of the kinase enzyme activity.
The enzyme has been expressed and purified in-house as a recombinant human protein with a C-terminal histidine tag. The protein is active and stable.
(§1) Assay conditions were as indicated by the kit manufacturers with the following adaptations for the kinase activity step: • Kinase assay buffer and assay volume stay as recommended (15 mM HEPES, pH 7.4, 20 mM NaCl, 1 mM EGTA, 0.02% Tween 20, 10 mM MgCl2 and 0.1 mg/ml bovine γ-globulins/75 μl assay volume) • Incubation time and temperature: 60 min at 30° C. • PIM-1 concentration: 50 pg/μl • ATP concentration: 100 μM • PIM-1 substrate peptide: PIMtide (ARKRRRHPSGPPTA) • Peptide concentration: 60 μM • Positive control for kinase activity inhibition: 1-10 μM Staurosporine • DMSO concentration have to stay below 2% during the kinase reaction
Assays were performed in either 96 or 384-well plates. The final outcome of the coupled reactions provided by the kit is the release of the fluorescent product Resorufin and has been measured with a multilabel HTS counter VICTOR V (PerkinElmer) using an excitation filter at 544 nm and an emission filter at 580 nm.
The biochemical assay to measure PIM-2 activity relies on the ADP Hunter assay kit (DiscoveRx Corp., Cat. # 90-0077), that determines the amount of ADP as direct product of the kinase enzyme activity.
The enzyme has been expressed and purified in-house as a recombinant human protein with a N-terminal histidine tag. The protein is active and stable.
as §1, with “mg/ml bovine γ-globulins/20 μl assay” for “mg/ml bovine γ-globulins/75 μl assay”, “and temperature: 30 min at” for “and temperature: 60 min at”, “C. • PIM-2 concentration: 350” for “C. • PIM-1 concentration: 50”, “PIM-2 concentration: 350 pg/μl •” for “PIM-1 concentration: 50 pg/μl •”, “Peptide concentration: 100 μM •” for “Peptide concentration: 60 μM •”

Each structure is given as a SMILES string.

Turning to `O=C(Nc1cnc2ccc(NCc3ccc(F)cc3)nn12)c1ccc(O)cc1` [Example 101, N-[6-(4-Fluoro-benzylamino)-imidazo[1,2-b]pyridazin-3-yl]-4-hydroxy-benzamide], the IC50 worked out at 410 nM.

As for `COc1ccc(NC(=O)c2cnc3ccc(NCc4ccco4)nn23)cc1OC` [Example 15, 6-[(Furan-2-ylmethyl)-amino]-imidazo[1,2-b]pyridazine-3-carboxylic acid (3,4-dimethoxy-phenyl)-amide], the concentration for half-maximal inhibition (IC50) came to 4030 nM.

`Cc1cc2ncc(C(=O)Nc3ccccc3)n2nc1NCc1ccco1` [Example 58, 6-[(Furan-2-ylmethyl)-amino]-7-methyl-imidazo[1,2-b]pyridazine-3-carboxylic acid phenylamide] registered a half-inhibitory concentration (IC50) of 300 nM.

The molecule `COc1ccc(C(=O)Nc2cnc3ccc(-n4ccnc4)nn23)cc1` [Example 100, N-(6-Imidazol-1-yl-imidazo[1,2-b]pyridazin-3-yl)-4-methoxy-benzamide] gave an IC50 of 19100 nM.

For the molecule `Cc1cc2ncc(C#Cc3ccccc3)n2nc1NCc1ccc(Cl)c(Cl)c1` [Example 70, (3,4-Dichloro-benzyl)-(7-methyl-3-phenylethynyl-imidazo[1,2-b]pyridazin-6-yl)-amine], the concentration for half-maximal inhibition (IC50) amounted to 2220 nM.

For the molecule `O=C(Nc1ccccc1)c1cnc2ccc(-n3cccc3)nn12` [Example 37, 6-Pyrrol-1-yl-imidazo[1,2-b]pyridazine-3-carboxylic acid phenylamide], the IC50 worked out at 530 nM.

`CCC(=O)Nc1cnc2ccc(NCc3ccc(F)cc3)nn12` [Example 89, N-[6-(4-Fluoro-benzylamino)-imidazo[1,2-b]pyridazin-3-yl]-propionamide] registered an IC50 of 19000 nM.

Consider `COc1ccc(NC(=O)c2cnc3ccc(NCc4ccc(F)cc4)nn23)cc1` [Example 11, 6-(4-Fluoro-benzylamino)-imidazo[1,2-b]pyridazine-3-carboxylic acid (4-methoxy-phenyl)-amide], for which the IC50 was found to be 80 nM.

Take `Cc1cc(NCc2ccc(Cl)c(Cl)c2)nn2c(C#Cc3ccccc3)cnc12` [Example 71, (3,4-Dichloro-benzyl)-(8-methyl-3-phenylethynyl-imidazo[1,2-b]pyridazin-6-yl)-amine]: inhibition was half-maximal at 5190 nM (IC50).

Molecule `O=C(Nc1ccccc1)c1cnc2ccc(-c3ccccc3)nn12` [Example 45, 6-Phenyl-imidazo[1,2-b]pyridazine-3-carboxylic acid phenylamide] displayed an IC50 of 490 nM.

With `O=C(O)c1ccc(NC(=O)c2cnc3ccc(NCc4ccc(Cl)c(Cl)c4)nn23)cc1` [Example 29, 4-{[6-(3,4-Dichloro-benzylamino)-imidazo[1,2-b]pyridazine-3-carbonyl]-amino}-benzoic acid], the IC50 turned out to be 260 nM.

In turn, `Cc1ccc(CNc2nn3c(C(=O)Nc4ccccc4)cnc3cc2C)cc1F` [Example 60, 6-(3-Fluoro-4-methyl-benzylamino)-7-methyl-imidazo[1,2-b]pyridazine-3-carboxylic acid phenylamide] returned an IC50 of 60 nM.

Consider `COc1ccc(CNc2nn3c(C(=O)Nc4ccccc4)cnc3cc2C2CCCC2)cc1` [Example 69, 7-Cyclopentyl-6-(4-methoxy-benzylamino)-imidazo[1,2-b]pyridazine-3-carboxylic acid phenylamide], for which half-maximal inhibition (IC50) required 190 nM.

In the case of `O=C(Nc1ccccc1)c1cnc2cc(C3CCCC3)c(NCc3ccc(F)cc3)nn12` [Example 68, 7-Cyclopentyl-6-(4-fluoro-benzylamino)-imidazo[1,2-b]pyridazine-3-carboxylic acid phenylamide], the midpoint of inhibition, the IC50, lay at 80 nM.

On to `COc1ccc(CNc2ccc3ncc(C(=O)Nc4cccc(C(=O)O)c4)n3n2)cc1` [Example 31, 3-{[6-(4-Methoxy-benzylamino)-imidazo[1,2-b]pyridazine-3-carbonyl]-amino}-benzoic acid], for which the concentration for half-maximal inhibition (IC50) is 7380 nM.

On to `Clc1ccc(CNc2ccc3ncc(C#CCc4ccccc4)n3n2)cc1Cl` [Example 73, N-(3,4-dichlorobenzyl)-3-(3-phenylprop-1-ynyl)imidazo[1,2-b]pyridazin-6-amine], for which the concentration for half-maximal inhibition (IC50) is 2850 nM.

In the case of `Clc1ccc(CNc2ccc3ncc(CN4CCOCC4)n3n2)cc1Cl` [Example 53, (3,4-Dichloro-benzyl)-(3-morpholin-4-ylmethyl-imidazo[1,2-b]pyridazin-6-yl)-amine], it took 33000 nM to reach half-maximal inhibition (IC50).

For the molecule `COc1ccc(NC(=O)c2cnc3ccc(NCc4ccc(S(N)(=O)=O)cc4)nn23)cn1` [Example 27], the 50% inhibitory concentration (IC50) is 1140 nM.

Turning to `O=C(Nc1ccccc1)c1cnc2ccc(Oc3ccccc3)nn12` [Example 35, 6-Phenoxy-imidazo[1,2-b]pyridazine-3-carboxylic acid phenylamide], half-maximal inhibition (IC50) required 120 nM.

In turn, `COc1ccc(C(=O)Nc2cnc3ccc(NCc4ccc(F)cc4)nn23)cc1` [Example 91, N-[6-(4-Fluoro-benzylamino)-imidazo[1,2-b]pyridazin-3-yl]-4-methoxy-benzamide] gave an IC50 of 310 nM.

The molecule `O=C(Nc1ccccc1)c1cnc2ccc(Oc3ccc(F)cc3)nn12` [Example 36] registered an IC50 of 2260 nM.

Take `O=C(Nc1cnc2ccc(Oc3ccccc3)nn12)c1ccccc1` [Example 98, N-(6-Phenoxy-imidazo[1,2-b]pyridazin-3-yl)-benzamide]: 4650 nM corresponded to half-maximal inhibition (IC50).

With `CC(=O)c1cccc(NC(=O)c2cnc3ccc(NCc4ccc(Cl)c(Cl)c4)nn23)c1` [Example 22, 6-(3,4-Dichloro-benzylamino)-imidazo[1,2-b]pyridazine-3-carboxylic acid (3-acetylphenyl)amide], half-maximal inhibition (IC50) required 33000 nM.

`O=C(Nc1ccccc1)c1cnc2ccc(Nc3cccnc3)nn12` [Example 41, 6-(Pyridin-3-ylamino)-imidazo[1,2-b]pyridazine-3-carboxylic acid phenyl-amide] had an IC50 of 60 nM.

On to `COc1ccc(CNc2cc(C)c3ncc(C(=O)Nc4cccc(C(=O)O)c4)n3n2)cc1` [Example 65, 3-{[6-(4-Methoxy-benzylamino)-8-methyl-imidazo[1,2-b]pyridazine-3-carbonyl]-amino}-benzoic acid], for which the midpoint of inhibition, the IC50, lay at 19300 nM.

As for `O=C(Nc1ccccc1)c1cnc2ccc(N3Cc4ccccc4C3)nn12` [Example 44, 6-(1,3-Dihydro-isoindol-2-yl)-imidazo[1,2-b]pyridazine-3-carboxylic acid phenylamide], the 50% inhibitory concentration (IC50) stood at 180 nM.

In turn, `CNC(=O)c1cccc(NC(=O)c2cnc3c(C)cc(NCc4ccc(OC)cc4)nn23)c1` [Example 66, 6-(4-Methoxy-benzylamino)-8-methyl-imidazo[1,2-b]pyridazine-3-carboxylic acid (3-methylcarbamoyl-phenyl)-amide] had an IC50 of 3130 nM.

Molecule `O=C(Nc1ccccc1)c1cnc2ccc(-n3ccnc3)nn12` [Example 38, 6-Imidazol-1-yl-imidazo[1,2-b]pyridazine-3-carboxylic acid phenylamide] showed an IC50 of 4630 nM.

On to `O=S(=O)(Nc1cnc2ccc(-c3ccccc3)nn12)c1ccccc1` [Example 86, N-(6-Phenyl-imidazo[1,2-b]pyridazin-3-yl)-benzenesulfonamide], for which the IC50 was 14500 nM.

`O=C(Nc1ccccc1)c1cnc2ccc(Nc3ccccc3)nn12` [Example 39, 6-Phenylamino-imidazo[1,2-b]pyridazine-3-carboxylic acid phenylamide] came in with an IC50 of 40 nM.
